Data as given in US20090234019A1, “T Type Calcium Channel Inhibitors” (priority 2004, published 2009).
Where two headings read alike, the source gives them in different places.

Experiments:
Jurkat cells [1] = assay: Inhibition of calcium entry into Jurkat cells (indo-1 fluorescence); format: cell-based, human; conditions: Homo sapiens
Method: Cells were incubated in growth media containing 1 uM of the acetoxy-methyl ester of the Ca2+-sensitive fluorescent dye indo-1 (indo-1/AM; Molecular Probes, Eugene, Oreg.) for 1 h at 37° C. Cells were washed three times in buffer A [10 mM HEPES (pH 7.4), 1 mM MgCl2, 3 mM KCl, 1 mM CaCl2, 140 mM NaCl, 0.1% glucose, and 1% fetal bovine serum] and suspended to a final concentration of 10^6 cells/ml. Before stimulation, cells were warmed to 37° C. Changes in [Ca2+]i were monitored in an SLM […] spectrofluorimeter (SLM/Aminco; Urbana, Ill.) using previously published methods ([…]., Szabo, G., and Gray, L. S. 1996. A voltage operable current is involved in activation-induced Ca^2+ entry in human lymphocytes whereas ICRAC has no apparent role. Am. J. Physiol. 271:[…]., and Gray, L. S. 1998. Calmodulin regulation of Ca^2+ entry in Jurkat T cells. Cell Calcium 23:361-368).

Jurkat cells [2] = assay: Inhibition of proliferation of Jurkat cells; format: cell-based, human; conditions: Homo sapiens
Method: (§1) Cancer cell lines were obtained from the American Type Culture Collection (Manassas, Va.). Cell lines were maintained in RPMI1640 supplemented with glutamine and 5% fetal bovine serum containing SerXtend (Irvine Scientific) when appropriate insulin, as directed by the ATCC. The fetal bovine serum used for culture was heat-inactivated by maintaining the serum at 56° C. for 1 h. Cell lines used were a T celleukemia (Jurkat), prostate cancer (PC3, DU145, LNCAP), breast cancer (MDA468, MDA361, MCF7), pancreatic cancer (MIA PaCa2), liver cancer (Hep G2), lung cancer (A549, NCl H460), colon cancer (HT29, HCT 116), and ovarian cancer (SK-OV-3).
(§2) LNCaP cells at 2.5×10^4 cells/well or PC-3 cells at 5×10^4 cells/well, both in a final volume of […], were plated in triplicate in standard flat-bottomed 96-well tissue culture plates in the presence of drug or vehicle (DMSO). Unless otherwise indicated, cells were grown for 48 h at 37° C. in a CO2 incubator. Relative cell growth was determined with the CellTiter 96 aqueous cell proliferation assay (Promega, Madison, Wis.) as described by the manufacturer using an automated plate reader. Results were calculated in a blinded fashion and are the means of triplicate determinations.

MDA-231 cells [3] = assay: Inhibition of proliferation of MDA-231 cells; format: cell-based; conditions: Homo sapiens, read-out: prolif: IC50 for inhibition of proliferation, MDA-231
MDA-435 cells [4] = assay: Inhibition of proliferation of MDA-435 cells; format: cell-based; conditions: read-out: prolif: IC50 for inhibition of proliferation, MDA-435
LNCaP cells [5] = assay: Inhibition of proliferation of LNCaP cells; format: cell-based; conditions: Homo sapiens, read-out: prolif: IC50 for inhibition of proliferation, LNCaP
Method: as §1, §2

PC3 cells = assay: Inhibition of proliferation of PC3 cells; format: cell-based, human; conditions: Homo sapiens, PC-3, PC3, read-out: prolif: IC50 for inhibition of proliferation, PC3
Method: as §1, §2

MDA-231 cells [6] = assay: Inhibition of calcium entry into MDA-231 cells; format: cell-based; conditions: Homo sapiens, MDA-MB-231, NE = no effect at highest concentration of drug tested, read-out: Ca2+: IC50 for inhibition of calcium entry, MDA-231
Method: (§3) Cells were incubated in growth media containing 1 uM of the acetoxy-methyl ester of the Ca2+-sensitive fluorescent dye indo-1 (indo-1/AM; Molecular Probes, Eugene, Oreg.) for 1 h at 37° C. Cells were washed three times in buffer A [10 mM HEPES (pH 7.4), 1 mM MgCl2, 3 mM KCl, 1 mM CaCl2, 140 mM NaCl, 0.1% glucose, and 1% fetal bovine serum] and suspended to a final concentration of 10^6 cells/ml. Before stimulation, cells were warmed to 37° C. Changes in [Ca2+]i were monitored in an SLM 8100C spectrofluorimeter (SLM/Aminco; Urbana, Ill.) using previously published methods (Densmore, J. J., Haverstick, D. M., Szabo, G., and Gray, L. S. 1996. A voltage operable current is involved in activation-induced Ca^2+ entry in human lymphocytes whereas ICRAC has no apparent role. Am. J. Physiol. 271:C1494-C1503; Haverstick, D. M., Densmore, J. J., and Gray, L. S. 1998. Calmodulin regulation of Ca^2+ entry in Jurkat T cells. Cell Calcium 23:361-368).

MDA-361 cells [7] = assay: Inhibition of proliferation of MDA-361 cells; format: cell-based; conditions: MDA361, NE = no effect at highest concentration of drug tested, read-out: prolif: IC50 for inhibition of proliferation, MDA-361
Method: as §1, §2

MDA-361 cells [8] = assay: Inhibition of calcium entry into MDA-361 cells; format: cell-based; conditions: MDA361, NE = no effect at highest concentration of drug tested, read-out: Ca2+: IC50 for inhibition of calcium entry, MDA-361
Method: as §3

LNCaP cells [9] = assay: Inhibition of calcium entry into LNCaP cells; format: cell-based; conditions: Homo sapiens, NE = no effect at highest concentration of drug tested, read-out: Ca2+: IC50 for inhibition of calcium entry, LNCaP
Method: as §3

MDA-435 cells [10] = assay: Inhibition of calcium entry into MDA-435 cells; format: cell-based; conditions: MDA435, NE = no effect at highest concentration of drug tested, read-out: Ca2+: IC50 for inhibition of calcium entry, MDA-435
Method: as §3

[11] = Jurkat cell line, Tables 1 and 2, unit inferred, read-out: IC50 for inhibition of Ca^2+ entry
[12] = Jurkat cell line, Tables 1 and 2, unit inferred, read-out: IC50 for inhibition of proliferation
[13] = MDA-MB-231, NE = no effect at highest concentration of drug tested
[14] = MDA435, NE = no effect at highest concentration of drug tested
[15] = NE = no effect at highest concentration of drug tested
[16] = Jurkat, NE = no effect at highest concentration of drug tested, read-out: Ca2+: IC50 for inhibition of calcium entry, Jurkat
[17] = Jurkat, NE = no effect at highest concentration of drug tested, read-out: prolif: IC50 for inhibition of proliferation, Jurkat

| Compound | IC50 (Jurkat cells [1]; [11]) [µM] | IC50 (Jurkat cells [2]; [12]) [µM] | IC50 (MDA-231 cells [3]; [13]) [mM] | IC50 (MDA-435 cells [4]; [14]) [mM] | IC50 (LNCaP cells [5]; [15]) [mM] | IC50 (Jurkat cells [1]; [16]) [µM] | IC50 (PC3 cells; [15]) [mM] | IC50 (MDA-231 cells [6]) [µM] | IC50 (Jurkat cells [2]; [17]) [µM] | also measured |
| --- | --- | --- | --- | --- | --- | --- | --- | --- | --- | --- |
| CC(C)COCC(CN(Cc1ccccc1)c1ccccc1)N1CCCC1 (centres unmarked) [Bepridil] | 5 | 10 |  |  |  |  |  |  |  |  |
| CC(NC(C)(C)C)C(=O)c1cccc(Cl)c1 (centres unmarked) [Bupropion] | > 100 | > 100 |  |  |  |  |  |  |  |  |
| CN1CCN(C(c2ccccc2)c2ccc(Cl)cc2)CC1 (centres unmarked) [Chlorcyclizine] | 25 | 90 |  |  |  |  |  |  |  |  |
| COc1ccc(CCCNCCCC(c2ccccc2)c2ccc(Cl)cc2)cc1 (centres unmarked) [Compound 3.3] |  |  | > 0.1 | > 0.1 | 0.042 | 60 | > 0.1 | 100 | 70 |  |
| COc1ccc(COCCOC(c2ccccc2)c2ccc(Cl)cc2)cc1 (centres unmarked) [Compound 3.7] |  |  | > 0.1 | > 0.1 | ~0.1 | 10 | > 0.1 | 60 | ~100 | IC50 (MDA-361 cells [7]): > 100 µM |
| COc1ccc(CCNc2ccccc2COC(c2ccccc2)c2ccc(Cl)cc2)cc1 (centres unmarked) [Compound 3.10] |  |  |  |  |  |  |  |  | > 300 | IC50 (MDA-231 cells [3]; MDA-MB-231, mM): > 1 mM; IC50 (MDA-435 cells [4]; MDA435, mM): > 1 mM; IC50 (LNCaP cells [5]; mM): > 1 mM; IC50 (PC3 cells; mM): > 1 mM; IC50 (MDA-361 cells [7]): ~70 µM |
| COc1ccc(CNCc2ccccc2COC(c2ccccc2)c2ccc(Cl)cc2)cc1 (centres unmarked) [Compound 3.11] |  |  | 0.0116 | 0.022 | 0.0033 | 3.3 | 0.014 | 20 | 5.4 | IC50 (MDA-361 cells [8]): 10 µM; IC50 (MDA-361 cells [7]): 8.5 µM |
| COc1ccc(CC[N+](C)(C)CCOC(c2ccccc2)c2ccc(Cl)cc2)cc1 (centres unmarked) [Compound 3.16] |  |  | 0.021 | 0.05 | 0.033 | 30 | 0.055 |  | 23 | IC50 (LNCaP cells [9]): 10 µM; IC50 (MDA-361 cells [7]): 8 µM |
| COc1ccc(NCCCCCCC(c2ccccc2)c2ccc(Cl)cc2)cc1 (centres unmarked) [Compound 3.17] |  |  | > 0.1 | > 0.1 | > 0.1 | 30 | > 0.1 | 30 | > 100 | IC50 (MDA-435 cells [10]): 30 µM; IC50 (LNCaP cells [9]): 30 µM |
| COc1ccc(CCNCCCCC(c2ccccc2)c2ccc(Cl)cc2)cc1 (centres unmarked) [Compound 3.19] |  |  | 0.006 | 0.011 | 0.003 | 10 | 0.01 | 10 | 4 | IC50 (MDA-435 cells [10]): 10 µM; IC50 (LNCaP cells [9]): 10 µM |
| COc1ccc(CCCCCNCC(c2ccccc2)c2ccc(Cl)cc2)cc1 (centres unmarked) [Compound 3.22] |  |  | 0.025 | 0.04 | 0.009 | 3 | 0.009 | 10 | 13 |  |
| COc1ccc(CCCCCCNC(c2ccccc2)c2ccc(Cl)cc2)cc1 (centres unmarked) [Compound 3.23] |  |  | > 0.1 | > 0.1 | ~0.1 |  | > 0.1 |  | ~30 |  |
| CCN(CC)C(C)CN1c2ccccc2Sc2ccccc21 (centres unmarked) [Ethopropazine] | 10 | 30 |  |  |  |  |  |  |  |  |
| CC(NCCC(c1ccccc1)c1ccccc1)c1ccccc1 (centres unmarked) [Fendiline] | 10 | 30 |  |  |  |  |  |  |  |  |
| COC(=O)C1=C(C)NC(C)=C(C(=O)OC(C)C)C1c1cccc2nonc12 (centres unmarked) [Isradipine] | 10 | 100 |  |  |  |  |  |  |  |  |
